According to patent US8163756B2 (priority 2004, dated 2012):

Assays:
Type in all cases: biochemical
Abl kinase = biological target: T1, Abl kinase (Homo sapiens, UniProt P00519); test: Abl kinase assay A1 (pyruvate kinase/lactate dehydrogenase coupled, spectrophotometric); settings: Method A1; read-out: Abl Data (IC50)
T1 sequence (P00519 229-512): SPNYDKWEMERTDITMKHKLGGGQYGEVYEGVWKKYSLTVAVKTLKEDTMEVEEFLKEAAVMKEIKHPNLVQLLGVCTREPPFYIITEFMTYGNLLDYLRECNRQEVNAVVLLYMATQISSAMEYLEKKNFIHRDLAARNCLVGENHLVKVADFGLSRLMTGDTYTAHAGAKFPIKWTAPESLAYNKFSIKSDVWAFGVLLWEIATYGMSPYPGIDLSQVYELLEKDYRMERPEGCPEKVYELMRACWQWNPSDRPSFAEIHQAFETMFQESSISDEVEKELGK
Procedure: IC50 values were calculated from a series of percent inhibition values determined at a range of inhibitor concentrations using software routines as implemented in the GraphPad Prism software package.

B-Raf(V599E) kinase = B-Raf(V599E) kinase (Homo sapiens, UniProt P15056, V600E); test: B-Raf(V599E) kinase assay B1 (construct 1, MEK1 substrate, coupled spectrophotometric)
Procedure: The test compounds were incubated with the reaction mixtureat 30° C. for 2 h. […] The reaction rate was calculated using the […] time frame. […] IC50 values were calculated from a series of percent inhibition values determined at a range of inhibitor concentrations using software routines as implemented in the GraphPad Prism software package.

[1] = biological target: phosphorylated p-38-alpha kinase (Homo sapiens, UniProt Q16539); test: P-38 alpha kinase assay P1 (coupled spectrophotometric, 2 h pre-incubation); settings: method P1 (2 h pre-incubation); read-out: P-38 Data
Sequence of phosphorylated p-38-alpha kinase (Q16539 1-360 isoform Q16539-2): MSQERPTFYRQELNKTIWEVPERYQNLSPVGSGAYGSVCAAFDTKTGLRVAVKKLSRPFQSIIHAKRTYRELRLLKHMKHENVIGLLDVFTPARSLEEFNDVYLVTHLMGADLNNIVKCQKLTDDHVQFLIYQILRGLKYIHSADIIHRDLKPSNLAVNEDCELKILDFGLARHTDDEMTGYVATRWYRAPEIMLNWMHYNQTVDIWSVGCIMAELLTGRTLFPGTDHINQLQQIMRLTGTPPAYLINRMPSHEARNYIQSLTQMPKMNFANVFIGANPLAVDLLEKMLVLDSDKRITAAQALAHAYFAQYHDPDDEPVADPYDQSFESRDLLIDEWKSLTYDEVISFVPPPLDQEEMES

Sequence of B-Raf(V599E) kinase (P15056 with tags, fused parts or gaps V600E): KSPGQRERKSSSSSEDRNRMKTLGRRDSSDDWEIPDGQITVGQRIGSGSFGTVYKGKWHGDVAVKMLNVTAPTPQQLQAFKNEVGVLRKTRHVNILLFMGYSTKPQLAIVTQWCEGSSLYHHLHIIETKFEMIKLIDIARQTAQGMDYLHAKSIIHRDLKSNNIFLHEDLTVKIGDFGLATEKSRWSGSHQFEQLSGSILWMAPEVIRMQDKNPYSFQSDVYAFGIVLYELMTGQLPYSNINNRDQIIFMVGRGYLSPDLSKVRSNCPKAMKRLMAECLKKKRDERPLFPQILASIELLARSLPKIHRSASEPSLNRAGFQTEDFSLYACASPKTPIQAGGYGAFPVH

| IC50 (Abl kinase) [nM] | SMILES | IC50 (B-Raf(V599E) kinase) [nM] | IC50 [1] [nM] |
| --- | --- | --- | --- |
| 4700 | CCOC(=O)c1cc(-n2nc(C(C)(C)C)cc2NC(=O)Nc2cccc(Cl)c2Cl)cc2ccccc12 [Example 58, 3-{3-t-butyl-5-[3-(2,3-dichlorophenyl)ureido]-pyrazol-1-yl}naphthalene-1-carboxylic acid ethyl ester] | – | – |
| – | CC(C)(C)c1cc(NC(=O)Nc2ccc(F)c(F)c2F)n(-c2cccc(CC(=O)O)c2)n1 [Example 356, 2-(3-(3-t-butyl-5-(3-(2,3,4-trifluorophenyl)-ureido)-1H-pyrazol-1-yl)phenyl)acetic acid] | 14 | 72 |
| 73 | CC(C)(C)c1cc(NC(=O)Nc2cc(F)ccc2F)n(-c2cc(CC(N)=O)c3ccccc3c2)n1 [Example 87, 1-(1-(4-(2-amino-2-oxoethyl)naphthalen-2-yl)-3-t-butyl-1H-pyrazol-5-yl)-3-(2,5-difluorophenyl)urea] | – | – |
| 34 | CC(C)(C)c1cc(NC(=O)Nc2cc(F)c(F)c(F)c2)n(-c2cc(CC(=O)NCC(O)CO)c3ccccc3c2)n1 (centres unmarked) [Example 98] | – | – |
| – | CC(C)(C)c1cc(NC(=O)Nc2cccc(Cl)c2Cl)n(-c2ccc(CC(=O)NCC(O)CO)cc2)n1 (centres unmarked) [Example 493] | 11 | 4 |
| 5100 | CC(C)(C)c1cc(NC(=O)Nc2cccc(C(F)(F)F)c2)n(-c2cccc(C#N)c2)n1 [Example 11] | – | – |
| – | CC(C)(C)c1ncc(NC(=O)Nc2cccc(Oc3cccnc3)c2)c(-c2ccccc2)n1 [Example 281, 1-(2-t-butyl-4-phenylpyrimidin-5-yl)-3-(3-(pyridin-3-yloxy)phenyl)urea] | 369 | 5800 |
| 180 | CC(C)(C)c1cc(NC(=O)Nc2cccc(C#N)c2)n(-c2ccc3c(c2)CNCC3)n1 [Example 125, 1-(3-t-butyl-1-(1,2,3,4-tetrahydroisoquinolin-7-yl)-1H-pyrazol-5-yl)-3-(3-cyanophenyl)urea] | – | – |
| – | CO[C@@H]1CCN(C(=O)Cc2cccc(-n3nc(C(C)(C)C)cc3NC(=O)Nc3cccc(Cl)c3Cl)c2)C1 [Example 444, 1-(3-t-butyl-1-(3-(2-((R)-3-methoxypyrrolidin-1-yl)-2-oxoethyl)phenyl)-1H-pyrazol-5-yl)-3-(2,3-dichlorophenyl)urea] | 20 | 63 |
| – | CC(C)(C)c1cc(NC(=O)NC2CCCCC2)n(-c2cc(CC(N)=O)c3ccccc3c2)n1 [Example 91, 1-(1-(4-(2-amino-2-oxoethyl)naphthalen-2-yl)-3-t-butyl-1H-pyrazol-5-yl)-3-cyclohexylurea] | 20 | 350 |
| 38 | CC(C)(C)c1cc(NC(=O)Nc2cc(F)ccc2F)n(-c2cc(CC(=O)NC(CO)CO)c3ccccc3c2)n1 [Example 99, 1-(3-t-butyl-1-(4-(2-(1,3-dihydroxypropan-2-ylamino)-2-oxoethyl)naphthalen-2-yl)-1H-pyrazol-5-yl)-3-(2,5-difluorophenyl)urea] | – | – |
| 720 | CC(C)(C)c1cc(NC(=O)Nc2cccc(Cl)c2Cl)n(-c2cccc(CC(=O)NC[C@H](O)CO)c2)n1 [Example 36, 1-(3-t-butyl-1-(3-(2-((S)-2,3-dihydroxypropylamino)-2-oxoethyl)phenyl)-1H-pyrazol-5-yl)-3-(2,3-dichloro-phenyl)urea] | – | – |
| – | COC[C@H]1CCCN1C(=O)Cc1ccc(-n2nc(C(C)(C)C)cc2NC(=O)Nc2cccc(Cl)c2Cl)cc1 [Example 484, (R)-1-(3-t-butyl-1-(4-(2-(2-(methoxymethyl)pyrrolidin-1-yl)-2-oxoethyl)phenyl)-1H-pyrazol-5-yl)-3-(2,3-dichlorophenyl)urea] | – | 13 |
| – | O=C(Cc1ccc(-n2nc(-c3cccs3)cc2NC(=O)N[C@H]2CCc3ccccc32)cc1)NCCO [Example 490, 1-((S)-2,3-dihydro-1H-inden-1-yl)-3-(1-(4-(2-(2-hydroxyethylamino)-2-oxoethyl)phenyl)-3-(thiophen-2-yl)-1H-pyrazol-5-yl)urea] | – | 53 |
| 310 | CC(C)(C)c1cc(NC(=O)Nc2cccc(C#N)c2)n(-c2ccc3c(c2)CCNCC3)n1 [Example 167, 1-(3-t-butyl-1-(2,3,4,5-tetrahydro-1H-benzo[d]azepin-7-yl)-1H-pyrazol-5-yl)-3-(3-cyanophenyl)urea] | – | – |
| – | CC(C)(C)c1cc(NC(=O)Nc2cccc(Cl)c2Cl)n(-c2cccc(CC(=O)NCC(O)CO)c2)n1 (centres unmarked) [Example 440, 1-(3-t-butyl-1-(3-(2-(2,3-dihydroxypropylamino)-2-oxoethyl)phenyl)-1H-pyrazol-5-yl)-3-(2,3-dichlorophenyl)urea] | 4.1 | 7 |
| – | O=C(O)Cc1ccc(-n2nc(-c3cccs3)cc2NC(=O)N[C@H]2CCc3ccccc32)cc1 [Example 389, 2-(4-(5-(3-((S)-2,3-dihydro-1H-inden-1-yl)ureido)-3-(thiophen-2-yl)-1H-pyrazol-1-yl)phenyl)acetic acid] | – | 13 |

| IC50 (Abl kinase) [nM] | SMILES | IC50 (B-Raf(V599E) kinase) [nM] | IC50 [1] [nM] |
| --- | --- | --- | --- |
| – | NC(=O)Cc1ccc(-n2nc(-c3cccc(F)c3)cc2NC(=O)Nc2cccc(Cl)c2Cl)cc1 [Example 480, 1-(1-(4-(2-amino-2-oxoethyl)phenyl)-3-(3-fluorophenyl)-1H-pyrazol-5-yl)-3-(2,3-dichlorophenyl)urea] | – | 73 |
| – | O=C(Cc1cccc(-n2nc(-c3cccs3)cc2NC(=O)N[C@H]2CCc3ccccc32)c1)NCCO [Example 416, 1-((S)-2,3-dihydro-1H-inden-1-yl)-3-(1-(3-(2-(2-hydroxyethylamino)-2-oxoethyl)phenyl)-3-(thiophen-2-yl)-1H-pyrazol-5-yl)urea] | – | 32 |
| – | COC[C@@H]1CCCN1C(=O)Cc1cccc(-n2nc(C(C)(C)C)cc2NC(=O)Nc2cccc(Cl)c2Cl)c1 [Example 409, 1-(3-t-butyl-1-(3-(2-((S)-2-(methoxymethyl)pyrrolidin-1-yl)-2-oxoethyl)phenyl)-1H-pyrazol-5-yl)-3-(2,3-dichlorophenyl)urea] | – | 150 |
| – | NC(=O)Cc1cccc(-n2nc(-c3ccccc3F)cc2NC(=O)Nc2cccc3ccccc23)c1 [Example 423, 1-(1-(3-(2-amino-2-oxoethyl)phenyl)-3-(2-fluorophenyl)-1H-pyrazol-5-yl)-3-(naphthalen-1-yl)urea] | – | 21 |
| – | NC(=O)Cc1cccc(-n2nc(-c3nccs3)cc2NC(=O)Nc2cccc(Cl)c2Cl)c1 [Example 410, 1-(1-(3-(2-amino-2-oxoethyl)phenyl)-3-(thiazol-2-yl)-1H-pyrazol-5-yl)-3-(2,3-dichlorophenyl)urea] | – | 88 |
| – | O=C(O)Cc1ccc(-n2nc(-c3ccccc3F)cc2NC(=O)Nc2ccc(F)c(F)c2F)cc1 [Example 388, 2-(4-(3-(2-fluorophenyl)-5-(3-(2,3,4-trifluorophenyl)ureido)-1H-pyrazol-1-yl)phenyl)acetic acid] | – | 91 |
| – | O=C(Cc1ccc(-n2nc(-c3cccc(F)c3)cc2NC(=O)Nc2cccc(Cl)c2Cl)cc1)NCC(O)CO (centres unmarked) [Example 481, 1-(2,3-dichlorophenyl)-3-(1-(4-(2-(2,3-dihydroxypropylamino)-2-oxoethyl)phenyl)-3-(3-fluorophenyl)-1H-pyrazol-5-yl)urea] | – | 33 |
| – | O=C(O)Cc1cccc(-n2nc(-c3cccs3)cc2NC(=O)N[C@H]2CCc3ccccc32)c1 [Example 361, 2-(3-(5-(3-((S)-2,3-dihydro-1H-inden-1-yl)ureido)-3-(thiophen-2-yl)-1H-pyrazol-1-yl)phenyl)acetic acid] | – | 30 |
| – | CNC(=O)Cc1cccc(-n2nc(C(C)(C)C)cc2NC(=O)Nc2ccc(F)c(F)c2F)c1 [Example 402, 1-(3-t-butyl-1-(3-(2-(methylamino)-2-oxoethyl)phenyl)-1H-pyrazol-5-yl)-3-(2,3,4-trifluorophenyl)urea] | – | 26 |
| – | CC(C)(C)c1cc(NC(=O)Nc2ccccc2)n(-c2cc(CC(=O)O)c3ccccc3c2)n1 [Example 301, {3-[3-t-butyl-5-(3-phenylureido)pyrazol-1-yl]naphthalen-1-yl}acetic acid] | 10 | 160 |
| – | NC(=O)Cc1cccc(-n2nc(-c3ccccc3F)cc2NC(=O)N[C@H]2CCc3ccccc32)c1 [Example 411, 1-(1-(3-(2-amino-2-oxoethyl)phenyl)-3-(2-fluorophenyl)-1H-pyrazol-5-yl)-3-((S)-2,3-dihydro-1H-inden-1-yl)urea] | – | 37 |
| – | O=C(Cc1cccc(-n2nc(-c3ccccc3F)cc2NC(=O)Nc2ccc(F)c(F)c2F)c1)NCC(O)CO (centres unmarked) [Example 424, 1-(1-(3-(2-(2,3-Dihydroxypropylamino)-2-oxoethyl)phenyl)-3-(2-fluorophenyl)-1H-pyrazol-5-yl)-3-(2,3,4-trifluorophenyl)urea] | – | 47 |
| 4300 | COc1cccc(NC(=O)Nc2cc(C(C)(C)C)nn2-c2cccc(C#N)c2)c1 [Example 10] | – | – |
| – | CC(C)(C)c1ncc(NC(=O)Nc2cccc(Cl)c2Cl)c(-c2ccccc2)n1 [Example 279, 1-(2-t-butyl-4-phenylpyrimidin-5-yl)-3-(2,3-dichlorophenyl)urea] | 697 | 1050 |
| 180 | CC(C)(C)c1cc(NC(=O)Nc2ccc(C#N)cc2)n(-c2cc(CC(N)=O)c3ccccc3c2)n1 [Example 79, 1-(1-(4-(2-amino-2-oxoethyl)naphthalen-2-yl)-3-t-butyl-1H-pyrazol-5-yl)-3-(4-cyanophenyl)urea] | – | – |
| – | O=C(O)Cc1cccc(-n2nc(-c3cccs3)cc2NC(=O)Nc2cccc3ccccc23)c1 [Example 364, 2-(3-(5-(3-(naphthalen-1-yl)ureido)-3-(thiophen-2-yl)-1H-pyrazol-1-yl)phenyl)acetic acid] | – | 13 |
